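These data come from cells grown in 96-well plates and exposed to compound for 48 hours at five concentrations. TGI: concentration producing complete growth inhibition.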

The test system of the first experiment is HOP-62 NSCLC. Nature of the experiment: NCI-60 cell line screen, 48 h.
Regarding `O=CN1CCN(C(=O)c2ccco2)C1=S`, the TGI came to 36.2 µM.

`CC(=O)C1(O)CCC2(O)C3(O)CC=C4CC(O)CCC4(C)C3CC(OC(=O)c3ccc(O)cc3)C12C` (stereo unspecified) returned a TGI of over 100 µM.

Turning to `Cn1c2c(c3ccccc31)CCN1C(=O)C34CCCC3CC21S4` (stereo unspecified), the TGI is over 100 µM.

For the compound `Clc1ccc(OCc2nnc(COc3ccc(OCc4nnc(COc5ccc(Cl)cc5Cl)o4)c(Cl)c3)o2)c(Cl)c1`, the TGI is over 100 µM.

Consider `O=C1/C(=C/c2ccncc2)C(n2cccc2)c2c(Br)sc(Br)c21` (stereo unspecified), for which the TGI is 11.3 µM.

For `COCC#C[C@@]1(O)CCCCC1CC(OC)OC` (stereo partly specified), the TGI is over 100 µM.

Compound `C=C1CC(COc2ccc3c(C)c(C)c(=O)oc3c2C)(c2ccccc2)OC1=O` (stereo unspecified) displayed a TGI of 20.8 µM.

Compound `CC(=O)OCC(=O)O[C@@H]1[C@H]2[C@@H](OC(=O)c3ccccc3)[C@@H](C)C[C@]2(O)[C@H](OC(C)=O)[C@@]2(C)C[C@]1(OC(C)=O)C[C@H]1C(=O)C(C)(C)[C@@H](OC(C)=O)[C@@H]12` registered a TGI of over 25 µM.

The compound `O=C(Sc1c(-c2ccccc2)c(=O)n(-c2ccccc2)c(=S)n1-c1ccccc1)c1ccco1` had a TGI of over 100 µM.

`Cn1nc2c(c1N)Cc1c(nn(C)c1N)-c1ccccc1-2` came in with a TGI of over 100 µM.

The compound `COC(=O)C1=C(C(=O)OC)SC(=C2SC3=C(SC(=C4SCCS4)S3)S2)S1` gave a TGI of over 100 µM.

In the case of `CCC(=O)Nc1ccc(NS(=O)(=O)c2ccc(Cl)cc2)cc1`, the TGI is over 100 µM.

Compound `c1c(N2CCOCC2)ssc1=[N+]1CCOCC1` registered a TGI of over 100 µM.

`Cc1nnc2n1-c1ccccc1N(Cc1ccccc1)CC2`: the TGI was over 100 µM.

On to `CC(C)(C)c1cc(/C=C2/NC(=O)NC2=O)cc(C(C)(C)C)c1O`, for which the TGI was found to be 33.1 µM.

`Cc1cnc2[nH]c(-c3cccc(F)c3)cc(=O)c2c1` showed a TGI of over 100 µM.

With `O=C(/C=C\Nc1ccccc1O)C(F)(F)F`, the TGI was over 100 µM.

The compound `CC1(C)OC[C@@H](C[C@H](O)COCc2ccccc2)O1` yielded a TGI of over 100 µM.

The compound `NC(N)=NS(=O)(=O)c1ccc(NC(=O)c2cccc3c(NNc4ccc(S(N)(=O)=O)cc4)c4ccccc4nc23)cc1` showed a TGI of over 100 µM.

Consider `Nc1nncc2[nH]cnc12`, for which the TGI is over 100 µM.

Consider `S=c1[nH]nc(Cn2c3ccc(Br)cc3c3nc4ccccc4nc32)n1C1CCCCC1`, for which the TGI is over 63.5 µM.

Take `COc1ccc2c(c1)-c1c(c3cc(OC)ccc3n1CCN(C)C)CC2`: the TGI worked out at 29.9 µM.

As to `CCCCCCc1cc2cc(-c3csc(-c4ccc(OC)cc4)n3)c(=O)oc2cc1O`, the TGI was 29.6 µM.

On to `COc1ccc(C2=C(Cl)C(=O)O/C2=C\c2ccc(OC)c(Br)c2)cc1Cl`, for which the TGI turned out to be 30.8 µM.

As for `CNC(=S)NNc1ncnc2c1c(-c1ccc(Cl)cc1)cn2-c1ccc(C)cc1`, the TGI worked out at 39.2 µM.

`CCCCCCCCCCCCNC(=O)CCC(NC(=O)c1ccc(N(C)Cc2cnc3nc(N)nc(N)c3n2)cc1)C(=O)NCCCCCCCCCCCC` (stereo unspecified) displayed a TGI of 95.6 µM.

In turn, `O=C1c2cccnc2S(=O)(=O)N1c1ccc([N+](=O)[O-])cc1` returned a TGI of over 100 µM.

A further experiment has as its system HOP-92 NSCLC. The experiment is described as follows: NCI-60 cell line screen, 48 h.
As to `O=CN1CCN(C(=O)c2ccco2)C1=S`, the TGI is 18.7 µM.

The compound `CC(=O)C1(O)CCC2(O)C3(O)CC=C4CC(O)CCC4(C)C3CC(OC(=O)c3ccc(O)cc3)C12C` (stereo unspecified) returned a TGI of over 100 µM.

In the case of `Cn1c2c(c3ccccc31)CCN1C(=O)C34CCCC3CC21S4` (stereo unspecified), the TGI was over 100 µM.

`Clc1ccc(OCc2nnc(COc3ccc(OCc4nnc(COc5ccc(Cl)cc5Cl)o4)c(Cl)c3)o2)c(Cl)c1` displayed a TGI of 33.5 µM.

For the compound `O=C1/C(=C/c2ccncc2)C(n2cccc2)c2c(Br)sc(Br)c21` (stereo unspecified), the TGI was found to be 7.83 µM.

For `COCC#C[C@@]1(O)CCCCC1CC(OC)OC` (stereo partly specified), the TGI is over 100 µM.

`C=C1CC(COc2ccc3c(C)c(C)c(=O)oc3c2C)(c2ccccc2)OC1=O` (stereo unspecified) displayed a TGI of 2.96 µM.

In turn, `CC(=O)OCC(=O)O[C@@H]1[C@H]2[C@@H](OC(=O)c3ccccc3)[C@@H](C)C[C@]2(O)[C@H](OC(C)=O)[C@@]2(C)C[C@]1(OC(C)=O)C[C@H]1C(=O)C(C)(C)[C@@H](OC(C)=O)[C@@H]12` displayed a TGI of over 25 µM.

`O=C(Sc1c(-c2ccccc2)c(=O)n(-c2ccccc2)c(=S)n1-c1ccccc1)c1ccco1` had a TGI of over 92.6 µM.

Compound `Cn1nc2c(c1N)Cc1c(nn(C)c1N)-c1ccccc1-2` registered a TGI of over 100 µM.

Consider `COC(=O)C1=C(C(=O)OC)SC(=C2SC3=C(SC(=C4SCCS4)S3)S2)S1`, for which the TGI was over 100 µM.

`CCC(=O)Nc1ccc(NS(=O)(=O)c2ccc(Cl)cc2)cc1` showed a TGI of over 100 µM.

`c1c(N2CCOCC2)ssc1=[N+]1CCOCC1` showed a TGI of over 100 µM.

Take `Cc1nnc2n1-c1ccccc1N(Cc1ccccc1)CC2`: the TGI is 51.9 µM.

In turn, `CC(C)(C)c1cc(/C=C2/NC(=O)NC2=O)cc(C(C)(C)C)c1O` returned a TGI of 27.9 µM.

`Cc1cnc2[nH]c(-c3cccc(F)c3)cc(=O)c2c1` had a TGI of over 100 µM.

The compound `O=C(/C=C\Nc1ccccc1O)C(F)(F)F` came in with a TGI of over 100 µM.

For `CC1(C)OC[C@@H](C[C@H](O)COCc2ccccc2)O1`, the TGI is over 100 µM.

`NC(N)=NS(=O)(=O)c1ccc(NC(=O)c2cccc3c(NNc4ccc(S(N)(=O)=O)cc4)c4ccccc4nc23)cc1` gave a TGI of 85.6 µM.

In turn, `Nc1nncc2[nH]cnc12` returned a TGI of over 100 µM.

Consider `S=c1[nH]nc(Cn2c3ccc(Br)cc3c3nc4ccccc4nc32)n1C1CCCCC1`, for which the TGI was found to be 19.6 µM.

Regarding `COc1ccc2c(c1)-c1c(c3cc(OC)ccc3n1CCN(C)C)CC2`, the TGI is 27.7 µM.

`CCCCCCc1cc2cc(-c3csc(-c4ccc(OC)cc4)n3)c(=O)oc2cc1O`: the TGI came to 16.2 µM.

`COc1ccc(C2=C(Cl)C(=O)O/C2=C\c2ccc(OC)c(Br)c2)cc1Cl`: the TGI turned out to be 49.9 µM.

`CNC(=S)NNc1ncnc2c1c(-c1ccc(Cl)cc1)cn2-c1ccc(C)cc1` showed a TGI of 30.8 µM.

`CCCCCCCCCCCCNC(=O)CCC(NC(=O)c1ccc(N(C)Cc2cnc3nc(N)nc(N)c3n2)cc1)C(=O)NCCCCCCCCCCCC` (stereo unspecified) returned a TGI of 30.9 µM.

In turn, `O=C1c2cccnc2S(=O)(=O)N1c1ccc([N+](=O)[O-])cc1` gave a TGI of over 100 µM.

The test system of the next experiment is HT29 colon. Nature of the experiment: NCI-60 cell line screen, 48 h.
`O=CN1CCN(C(=O)c2ccco2)C1=S`: the TGI stood at 26.2 µM.

`CC(=O)C1(O)CCC2(O)C3(O)CC=C4CC(O)CCC4(C)C3CC(OC(=O)c3ccc(O)cc3)C12C` (stereo unspecified): the TGI was over 100 µM.

`Cn1c2c(c3ccccc31)CCN1C(=O)C34CCCC3CC21S4` (stereo unspecified): the TGI was over 100 µM.

`Clc1ccc(OCc2nnc(COc3ccc(OCc4nnc(COc5ccc(Cl)cc5Cl)o4)c(Cl)c3)o2)c(Cl)c1` had a TGI of 87.5 µM.

As to `O=C1/C(=C/c2ccncc2)C(n2cccc2)c2c(Br)sc(Br)c21` (stereo unspecified), the TGI stood at 23.5 µM.

`COCC#C[C@@]1(O)CCCCC1CC(OC)OC` (stereo partly specified) registered a TGI of over 100 µM.

As for `C=C1CC(COc2ccc3c(C)c(C)c(=O)oc3c2C)(c2ccccc2)OC1=O` (stereo unspecified), the TGI amounted to 3.27 µM.

As for `CC(=O)OCC(=O)O[C@@H]1[C@H]2[C@@H](OC(=O)c3ccccc3)[C@@H](C)C[C@]2(O)[C@H](OC(C)=O)[C@@]2(C)C[C@]1(OC(C)=O)C[C@H]1C(=O)C(C)(C)[C@@H](OC(C)=O)[C@@H]12`, the TGI was over 25 µM.

In turn, `O=C(Sc1c(-c2ccccc2)c(=O)n(-c2ccccc2)c(=S)n1-c1ccccc1)c1ccco1` had a TGI of over 100 µM.

On to `Cn1nc2c(c1N)Cc1c(nn(C)c1N)-c1ccccc1-2`, for which the TGI is over 100 µM.

For the compound `COC(=O)C1=C(C(=O)OC)SC(=C2SC3=C(SC(=C4SCCS4)S3)S2)S1`, the TGI was over 100 µM.

In turn, `CCC(=O)Nc1ccc(NS(=O)(=O)c2ccc(Cl)cc2)cc1` gave a TGI of over 100 µM.

For the origin of these results see PubChem BioAssay (NCI).
